Consider 1 compound from patent publication US20150359794A1, “IMPAIRMENT OF THE LARGE RIBOSOMAL SUBUNIT PROTEIN RPL24 BY DEPLETION OR ACETYLATION” (Buck Institute for Research on Aging, priority 2014, published 2015).

Holding throughout (type): cell-based, human
The subject of one experiment is ribosomal protein. Nature of the experiment: Acetyl-lysine western blot of ribopellets (ribosomal protein acetylation). To be noted: SKBR3 cells. As for the experimental part: Previous studies have shown that pan-inhibitors of class I and II histone deacetylases, like TSA, can rapidly destabilize a number of oncogenic transcripts including HER2 in a cycloheximide-dependent manner (FIG. 9). […] Thus, SKBR3 cells were treated with TSA to evaluate polysome protein acetylation and determine if, similar to RPL24 depletion, histone deacetylase inhibition can affect ribosome assembly dynamics. To detect early (2 h) ribosome or polysome acetylation following histone deacetylase inhibition treatment (1 μM TSA), SKBR3 polysomes were isolated using a discontinuous sucrose gradient as previously described. […] Mass spectrometry studies indicate that 15 ribosomal proteins, 11 large subunit proteins (RPL24 included) and 4 small subunit proteins, underwent at least a two-fold induction in acetylation following 2 h or 6 h TSA treatment (1 μM) (FIG. 4b, FIG. 10a-q).
(§1) Like TSA, the HDAC6 (class IIb)-selective inhibitors, Tubacin and Compound 101, as well as HDAC6 siRNA, all induce tubulin acetylation as expected as well as ribosomal protein acetylation, including the band that co-migrates with RPL24 (FIG. 4c,d, indicated by arrows). […] Thus, the tubulin acetylating effects of pan-histone deacetylase inhibition, known to be mediated by inhibition or knockdown of HDAC6, correspond to the observed ribosome and RPL24 acetylation responses induced by TSA.
(§2) Cells are lysed in RIPA buffer (10 mM Tris-HCL (pH 8.0), 1 mM EDTA, 0.5 mM EGTA, 1% triton X-100, 0.1% sodium deoxycholate, 0.1% SDS, 140 mM NaCl, 20 mM NaF, Complete EDTA-free protease inhibitor tablets (Roche Diagnostics Corp., Basel, Switzerland) and the phosphatase inhibitor cocktail PhosSTOP (Roche)), the latter two as indicated by the manufacturer's protocol. Equal amounts of protein are diluted in 2× sample buffer. Immunoblots on PVDF (Polyvinyldene Fluoride) membranes are blocked with nonfat milk in tris-buffered saline with 0.05% tween-20 (TBST). The following antibodies are incubated with membranes in 5% nonfat milk in TBST: RPL24 (Proteintech, Chicago, Ill.), Cyclin D1, Rack1, RPL4 (Santa Cruz Biotechnology, Santa Cruz, Calif.), NBS1, GAPDH (EMD Millipore Corporation, Chicago, Ill.), Survivin, β-tubulin, acetyl-lysine, eIF6, acetyl-H2B, H2B, (Cell Signaling Technology, Boston, Mass.), acetyl-tubulin, tubulin (Sigma Aldrich (St. Louis, Mo.))
Cells, plated at […] confluency, are treated as indicated. After treatment, cells are treated with 50 μg/ml cycloheximide for 15 minutes. Cells are lysed with a buffer containing 10 mM HEPES, 10 mM KCl, 75 mM NaCl, 10 mM MgCl2, 0.35% NP40, pH 7.9 supplemented with Complete EDTA-free protease inhibitor tablets, PhosSTOP phosphatase inhibitor tablets (Roche) per manufacturer's instructions, 50 μg/ml cycloheximide, SUPERase RNase inhibitors (Life Technologies) per manufacturer's instructions, 15 μM TSA, and 5 mM nicotinimide to inhibit histone deacetylases. Supernatants are collected as cytoplasmic preparations. Where indicated, pellets containing nuclei are resuspended in RIPA buffer (described above). The suspension is spun at 13,000 rpm for 5 min and supernatants are collected as nuclear preparations.
Ribosomes are subsequently isolated from cytoplasmic preparations as described previously. Briefly, lysates are layered on top of a 12% and 33% discontinuous sucrose gradient and spun at 38,000 rpm for 2 h. The resulting polysome pellet is then resuspended, stripped of RNA with acetic acid, and then pelleted with acetone. The pellet is then resuspended in 8 M urea, 2% CHAPS, and 25 mM dithiothreitol (DTT).
FIG. 4: Ribosomal protein acetylation is induced by histone deacetylase inhibition. (a-c) SKBR3 cells were treated with the indicated drugs for the indicated period of time. (d) SKBR3 cells were transfected with the indicated siRNAs and allowed to incubate for 72 hours. (a, c, d). The indicated western blots were performed in ribopellets, total cytoplasmic lysates, or nuclear extracts. […]
A general note: A western blot detects proteins with antibodies after separation by electrophoresis.

The next experiment deals with tubulin. Nature of the experiment: Western blot for tubulin acetylation in SKBR3 cells. To be noted: western blot (FIG. 4c,d).
Excerpt: as §1, §2
FIG. 4: Ribosomal protein acetylation is induced by histone deacetylase inhibition. (a-c) SKBR3 cells were treated with the indicated drugs for the indicated period of time. (d) SKBR3 cells were transfected with the indicated siRNAs and allowed to incubate for 72 hours. (a, c, d). The indicated western blots were performed in ribopellets, total cytoplasmic lysates, or nuclear extracts. (b) Mass spectrometry was performed on ribopellets as described in materials and methods and in FIG. 6. The fold change in acetylated peptide to total peptide case by TSA treatment is plotted. Only proteins that underwent at least a two-fold induction upon TSA treatment are shown. Error bars represent the standard error of the mean for three biological replicates.

In experiment [1] the test system is cyclin D1, survivin, and NBS1. Nature of the experiment: Western blot of cap (eIF4E)-dependently translated proteins. Conditions: SKBR3 cells. As for the experimental part:
Since the translation-dependent checkpoint mechanism remains undefined, the impact of RPL24 depletion in a model human breast cancer cell line, SKBR3, sensitive to eIF4E-regulated and cap-dependent translation inhibition was evaluated. Two different RPL24-directed shRNA-expressing lentiviruses were used to decrease RPL24 protein expression by approximately 70% (FIG. 2a). […] Associated with RPL24 depletion and growth inhibition was a marked reduction in the expression of three different eIF4E-regulated and cap-dependent transcripts necessary for cell proliferation (75% reduction in cyclin D1), survival (46% reduction in survivin), and DNA repair and integrity (30% reduction in NBS1). Protein levels of two housekeeping genes not regulated by eIF4E, GAPDH and β-tubulin, were not affected by RPL24 depletion (FIG. 2a).
as §2
FIG. 2: RPL24 knockdown reduces breast cancer cell viability while inhibiting cap (eIF4E)-dependent expression of proliferation, survival and genome stability proteins. SKBR3 cells were infected with lentiviruses expressing a GFP control or RPL24-targeting shRNA. After one week of puromycin selection, cells were plated in 96-well plates for viability assays and lysates were taken in parallel for western blots. (a) Western blots were performed on lysates from an equal number of cells using antibodies toward the indicated proteins. (b) Viability assay readings were taken three hours after plating (day 0) and four days after plating (day 4). The day 4 results were normalized for plating efficiency using the day 0 values. Error bars represent three replicate samples.
FIG. 5: Like RPL24 knockdown, histone deacetylase inhibition reduces 80S assembly while increasing 60S retention of eIF6 and reduces expression of cap (eIF4)-dependently translated proteins (a,b) SKBR3 cells were treated with TSA (1 μM, 2 h). […]

For `CC(/C=C/C(=O)NO)=C\[C@@H](C)C(=O)c1ccc(N(C)C)cc1` [TSA, trichostatin-A], in the experiment with ribosomal protein (1 μM TSA, 2 h, western blot), the “acetyl-lysine protein bands in polysomes, including band co-migrating with RPL24” value is reported as “several TSA-induced bands” and the “total RPL24 levels” value is on record as “not altered”. In addition, in the experiment with ribosomal protein (western blot of ribopellets (FIG. 4c,d)), the “ribosomal protein acetylation, including the band that co-migrates with RPL24” value was “induce”. Further, the tubulin acetylation result in the experiment on tubulin is reported as “induce”. Further, in experiment [1] (8 h treatment), the “cyclin D1 levels” value is “reduced”. In addition, in experiment [1] (24 h treatment), the “expression of NBS1 relative to GAPDH and β-tubulin” value was “reduced”; the “expression of cyclin D1 relative to GAPDH and β-tubulin” value is on record as “reduced”; the “expression of survivin relative to GAPDH and β-tubulin” value is recorded as “reduced”.
